Test results reported in US7781446B2, “Use of CCI-779 as an antineoplastic agent” (Wyeth LLC, priority 2000, dated 2010).

What was measured:
[1] = tested on: Renal tumor line CRL-1161; assay: In vitro growth of human renal tumor cells, 3H-thymidine uptake; type: cell-based; conditions: 48 hours with drug
Description: (§1) In vitro test procedure: Renal tumor lines HTB-44 and CRL-1161 were obtained from the American Tissue Culture Collection (ATCC), Bethesda, Md. SN12-C line was obtained from Dr. J. Fidler, M. D. Anderson Hospital, Houston, Tex. Cells were plated in MEM (Gibco) supplemented with 2 mM glutamine, 1 mM sodium pyruvate, 5 ml penicillin-streptomycin solution, 1 mM non-essential amino acid solution, 10% fetal bovine solution. Cells (5×10^3) were plated in 96 well plates with a final volume of […] and incubated for 24 hours at 37° C. Log dilutions of CCI-779 beginning at 100 μg/ml were then added to the cultures for 48 hours. Over the last 5 hours, cells were pulsed with 1 μci ^3H-thymidine (New England Nuclear, 6.7 ci/m Mol). Cells were then harvested and the degree of thymidine uptake determined by liquid scintillation spectrometry. The IC50 was determined as the concentration that produced 50% of the maximum uptake of thymidine in control untreated cells.
(§2) Human renal cell tumors were cultured in vitro in the presence or absence of CCI-779 for 3 days and the effect on growth determined by ^3H-thymidine incorporation of control versus treated cells.

Renal tumor line HTB-44 = assay: as above; type: cell-based; conditions: 48 hours with drug
Description: as §1, §2

Renal tumor line SN12-C = assay: as above; type: cell-based; conditions: 48 hours with drug
Description: as §1, §2

[2] = tested on: CRL-1161 human renal tumor cells; assay: Human renal tumor cell xenograft in nude mice; type: in vivo, Balb/c nu/nu mice; conditions: CRL-1161 xenograft; for Tumor Mass / % T/C (Treated/Control × 100): 25 mg/kg oral
Description: (§3) In vivo test procedure: Female Balb/c nu/nu mice were obtained from Charles River Labs, Wilmington, Del., at 6-8 weeks of age. Mice (n=10/group) were injected sc with 5×10^6 cells resuspended in a 50% solution of Matrigel (BD Biosciences) and tumors allowed to develop. When tumor size reached 100 mg, mice were treated orally with CCI-779 at 25 mg/kg. CCI-779 was dosed for 5 consecutive days with repeated 14 day cycles throughout the duration of the experiment. The formulation used for CCI-779 was a 50% ethanol, 49% phosal, 1% tween 80 vehicle for resuspending CCI-779, where the stock was resuspended into a 1:10 dilution of the vehicle prior to dosing. Tumor growth was evaluated using a vernier caliper and volume (l×w×h) was converted to mass using the formula: 1×w^2/2.
(§4) The effect of CCI-779 in two human renal lines (HTB-44 and CRL-1161) was evaluated in vivo by engrafting tumor cells on the flanks of nude mice. Once tumors were established at a size of about 100 mg, mice were treated with CCI-779 or a vehicle control.

[3] = tested on: HTB-44 human renal tumor cells; assay: Human renal tumor cell xenograft in nude mice; type: in vivo, Balb/c nu/nu mice; conditions: HTB-44 xenograft; for Tumor Mass / % T/C (Treated/Control × 100): 25 mg/kg oral
Description: as §3, §4

[4] = tested on: advanced cancer (solid tumors and lymphomas) refractory to standard therapy; assay: Phase I clinical trial, 30 minute i.v. infusion daily for 5 days every two to three weeks; type: in vivo, human
Description: (§5) Two single agent (CCI-779) Phase I clinical trials have been conducted. In the first study, CCI-779 was administered as a 30 minute i.v. infusion daily for 5 days, every two to three weeks. In the second study, CCI-779 was administered as a 30 minute i.v. infusion, once weekly. Both trials were open label, ascending dose, single-arm, multicenter studies. Patients were allowed to continue treatment as long as the CCI-779 was tolerated and there was no evidence of obvious disease progression. The following eligibility criteria were used:
(§6) Inclusion Criteria • 1. Patients with a histologic diagnosis of advanced cancer (solid tumors and, in the first study, lymphomas) who are refractory to standard therapy or for whom standard therapy is not appropriate. • 2. Measurable or evaluable disease. • 3. At least 3 weeks since prior chemotherapy and/or radiation therapy (6 weeks since nitrosoureas or mitomycin C). • 4. At least 4 weeks since any other investigational agent. • 5. Age at least 18 years old. • 6. Adequate bone marrow, renal, and hepatic function. • 7. Serum cholesterol<350 mg/dL and triglycerides […]. • 8. ECOG performance status 0-2. • 9. Life expectancy of at least 3 months. • 10. Signed, dated, witnessed written informed consent.
(§7) A total of 63 patients and 24 patients were enrolled in first and second studies, respectively. Dose levels ranged from 0.75-24 mg/m^2 and 7.5-220 mg/m^2, with the daily×5 every 2 weeks and weekly schedules, respectively.

[5] = tested on: advanced cancer (solid tumors) refractory to standard therapy; assay: Phase I clinical trial, 30 minute i.v. infusion once weekly; type: in vivo, human; conditions: for number of partial responses: weekly dosage schedule
Description: as §5, §6, §7

[6] = Homo sapiens, read-out: CCI-779 IC50 (50% growth inhibitory concentration)
[7] = 5 consecutive days, 14 day cycles, day 0
[8] = 25 mg/kg, versus vehicle control
[9] = patients having soft tissue sarcoma, daily×5 dosage schedule
[10] = renal cancer patients, daily×5 schedule
[11] = patients having renal cancer, weekly schedule

CO[C@H]1C[C@@H]2CC[C@@H](C)[C@@](O)(O2)C(=O)C(=O)N2CCCC[C@H]2C(=O)O[C@H]([C@H](C)C[C@@H]2CC[C@@H](OC(=O)C(C)(CO)CO)[C@H](OC)C2)CC(=O)[C@H](C)/C=C(\C)[C@@H](O)[C@@H](OC)C(=O)[C@H](C)C[C@H](C)/C=C/C=C/C=C/1C [CCI-779, rapamycin 42-ester with 3-hydroxy-2-(hydroxymethyl)-2-methylpropionic acid]
CCI-779 IC50 (50% growth inhibitory concentration) [1]: low nM range
IC50 [1, 6]: 2 nM
CCI-779 IC50 (50% growth inhibitory concentration) (Renal tumor line HTB-44): low nM range
IC50 (Renal tumor line HTB-44; [6]): 5 nM
CCI-779 IC50 (50% growth inhibitory concentration) (Renal tumor line SN12-C): low nM range
IC50 (Renal tumor line SN12-C; Homo sapiens, SN12C, read-out: CCI-779 IC50 (50% growth inhibitory concentration)): 5.5 nM
Tumor Mass [2, 7]: 272 ± 14 mg
% T/C (Treated/Control × 100) ([2]; day 0): 100%
% T/C (Treated/Control × 100) ([2]; day 7): 62%
Tumor Mass ([2]; day 7): 219 ± 16 mg
% T/C (Treated/Control × 100) ([2]; day 21): 60%
Tumor Mass ([2]; day 21): 226 ± 17 mg
% T/C (Treated/Control × 100) ([2]; day 35): 42%
Tumor Mass ([2]; day 35): 200 ± 21 mg
% T/C (Treated/Control × 100) ([2]; day 49): 42%
Tumor Mass ([2]; day 49): 229 ± 28 mg
% T/C (Treated/Control × 100) ([2]; day 55): 53%
Tumor Mass ([2]; day 55): 268 ± 30 mg
inhibition of tumor cell growth in the mice [2, 8]: significant inhibition of tumor cell growth
Tumor Mass [3, 7]: 290 ± 15 mg
% T/C (Treated/Control × 100) ([3]; day 0): 101%
% T/C (Treated/Control × 100) ([3]; day 7): 71%
Tumor Mass ([3]; day 7): 156 ± 13 mg
% T/C (Treated/Control × 100) ([3]; day 21): 41%
Tumor Mass ([3]; day 21): 252 ± 48 mg
% T/C (Treated/Control × 100) ([3]; day 35): 41%
Tumor Mass ([3]; day 35): 453 ± 85 mg
% T/C (Treated/Control × 100) ([3]; day 49): 48%
Tumor Mass ([3]; day 49): 980 ± 155 mg
% T/C (Treated/Control × 100) ([3]; day 55): 44%
Tumor Mass ([3]; day 55): 1050 ± 183 mg
inhibition of tumor cell growth in the mice [3, 8]: significant inhibition of tumor cell growth
number of minor responses ([4]; patients having cervical cancer, daily×5 dosage schedule): one
number of partial responses ([4]; patients having non-small cell lung cancer, daily×5 dosage schedule): one
number of minor responses [4, 9]: 2
number of possible partial responses [4, 9]: 1
number of stable disease [4, 9]: 1
number of unconfirmed minor responses ([4]; patients having uterine cancer, daily×5 dosage schedule): one
duration of stable disease [4, 10]: approximately 5 months
number of minor responses [4, 10]: 1
number of stable disease (<25% increase to <25% reduction in tumor size) [4, 10]: 1
number of unconfirmed minor responses [4, 10]: 1
number of minor responses (≧25% but<50% reduction in tumor size) [5, 11]: 2
number of partial responses (≧50% reduction in tumor size) [5, 11]: 1
number of partial responses ([5]; patients with breast cancer): one
number of partial responses ([5]; patients with neuroendocrine tumor of the lung): one
